Reference: patent US6274616A, “N,N-diethylglycolamido ester prodrugs of indole sPLA2 inhibitors” (Eli Lilly and Company, priority 2000, dated 2001)

Legend:
[1] = target: recombinant human secreted phospholipase A2; details: cited from earlier work
[2] = target: recombinant human secreted phospholipase A2; details: guinea pig lung tissue; data from U.S. Pat. No. 5,654,326; read-out: Tissue test secreted PLA2 Apparent KB; cited from earlier work
[3] = Assay III: Rat Plasma Pharmacokinetics Study (oral bioavailability); type: in vivo, Rat (Fischer 344)
Protocol: The bioavailability of the compound of the invention, ((3-(2-amino-1,2-dioxoethyl)-1-((1,1'-biphenyl)-3-ylmethyl)-2-methyl-1H-indol-4-yl)oxy)acetic acid N,N-diethylglycolamido ester, was determined using a Rat Plasma Pharmacokinetics Study:
The purpose of this assay was to evaluate and compare the oral delivery for selected sPLA2 inhibitors.
The amount of sPLA2 inhibitor was corrected for free acid equivalents.
Suspension of sPLA2 inhibitor in 10% Acacia, prepared just prior to dose administration
Dose: 10 mg/kg (of the parent acid)
Blood samples (0.8 ml) were obtained at the following times: 0.5, 1, 2, 4, 8 and 24 hours (2 rats/timepoint)
Plasma was assayed by HPLC to measure concentrations of the different sPLA2 inhibitors (as free acids).
Cmax (maximal plasma concentrations), and AUC values were determined from the mean plasma concentration-time profiles.

Row | Structure (SMILES) | IC50 ([1]; chromogenic assay, 3-4 tests, data from U.S. Pat. No. 5,654,326, read-out: Inhibition of human secreted PLA2 IC50 ± mean deviation (3-4 tests)) | inhibiting sPLA2 (conclusion in words) ([1]; conclusion of Assay 1, Table I) | Kb [2] | oral bioavailability compared with other esters (in words) ([3]; conclusion from Table 3) | oral bioavailability compared with other esters (in words) ([3]; conclusion from Table 3, listed as compound of formula (I))
1 | Cc1c(C(=O)C(N)=O)c2c(OCC(=O)O)cccc2n1Cc1cccc(-c2ccccc2)c1 [Compound of formula (II), ((3-(2-amino-1,2-dioxoethyl)-1-((1,1'-biphenyl)-3-ylmethyl)-2-methyl-1H-indol-4-yl)oxy)acetic acid] | 4.33 ± 2.31 nM | highly active in inhibiting sPLA2 | 57 ± 11 nM |  | 
2 | CCN(CC)C(=O)COC(=O)COc1cccc2c1c(C(=O)C(N)=O)c(C)n2Cc1cccc(-c2ccccc2)c1 [N,N-diethylglycolamido, ((3-(2-amino-1,2-dioxoethyl)-1-((1,1'-biphenyl)-3-ylmethyl)-2-methyl-1H-indol-4-yl)oxy)acetic acid N,N-diethylglycolamido ester] |  |  |  | unexpectedly more bioavailable than many other esters of the sPLA2 inhibitor | highly bioavailable upon oral administration compared to other common ester type prodrugs
